Test system: ligand-dependent transcription factors (AhR, ER, and AR)
Assay: Reporter gene (luciferase) assay in Neuro2a cells carrying PGV-THp03 (SEQ ID No: 2)
Type: cell-based, mouse
Conditions: for luciferase activity increase: 30 hours, PGV-THp03, AhR-introduced Neuro2a
Description: A vector (PGV-THp03) containing the upstream region (SEQ ID No: 2) ranging from about −300 to 0 position of the TH gene-coding region, which was prepared in Example 4, was used. Neuro2a was used as the cell.
Two kinds of vectors, pcDNA4-rAhR (Example 1) and pcDNA4/V5-His/lacZ (Invitrogen), were introduced into Neuro2a, together with PGV-THp03. pcDNA4-rAhR was introduced for constitutive expression of the SD-line rat AhR gene (SEQ ID No: 10) in the cell, and pcDNA4/V5-His/lacZ was introduced for normalization of the vector transfection efficiency.
The vectors were introduced into the cell by using LIPOFECTAMINE 2000 (Invitrogen). The cell was cultured on a 24-well plate, and the operation was performed according to the manual of Invitrogen. A total of […] of vectors (0.4 μg of PGV-THp03, 0.2 μg of pcDNA4-rAhR, and 0.2 μg of pcDNA4/V5-His/lacZ) suspended in 50 μl of OPTI-MEM medium and 2 μl of LIPOFECTAMINE 2000 suspended in 50 μl of OPTI-MEM medium were mixed, and incubated at room temperature for 20 minutes to form nucleic acid/LIPOFECTAMINE 2000 complex. The obtained suspension containing the complex was added to Neuro2a cell culture, which has been previously cultured overnight in 500 μl of DF1:1 medium (containing 10% fetal calf serum) (0.8×10^5 cells were seeded on previous day), to allow incorporation of the vectors into the cell. The cell was cultured additionally for 24 hours after transfection, for the purpose of improvement in vector incorporation efficiency and expression of the protein derived from the introduced vectors.
As the test substances, vinclozolin (10 μM), dimethyl phthalate (10 μM), benzopyrene (1 μM), and dioxin (TCDD) (10 nM) were used. After the transfection and the additional incubation for 24 hours, the medium was replaced with a fresh medium containing any one of the test substances, and the cell was cultured additionally for 30 hours. After 30 hours, the medium was removed from the 24-well plate, and the cell was washed with phosphate buffer twice. 100 μl of a protein extraction solution (manufactured by TOYO B-NET) was added to each well, and the cell suspension was stirred gently at room temperature for 15 minutes and then frozen at −80° C. The frozen solution was thawed at room temperature, and the resulting solution was recovered in a tube and diluted ten times with a protein extraction reagent containing 1 mg/ml bovine serum albumin luciferase and β-galactosidase activities in the diluted solution were measured, and the expression amount of the reporter gene was calculated as a relative luminescence intensity per 1 ng of β-galactosidase per second (RLU/sec/ng β-galactosidase).

Compound: COC(=O)c1ccccc1C(=O)OC [Dimethyl phthalate, dimethyl phthalate]
- luciferase activity increase (10 μM): approximately 1.2 times

Compound: c1ccc2c(c1)c1cccc3ccc4cccc2c4c31 [benzopyrene]
- luciferase activity increase (1 μM): approximately 1.3 times

Compound: C=CC1(C)OC(=O)N(c2cc(Cl)cc(Cl)c2)C1=O (stereo not shown) [vinclozolin]
- luciferase activity increase (10 μM): approximately 1.3 times
- change in luciferase activity (10 μM, PGV-THp03, cell with no AhR introduced): no change in luciferase activity

Reference: patent US7811760B2, “Vector and method for detecting the change in transcription amount” (priority 2006, dated 2010)
